Test results reported in publication PMC3684613 (PLoS ONE, 2013).
Like-named read-outs stand apart in the source and are kept apart here.

Legend:
P. falciparum 3D7 [1] = test system: P. falciparum 3D7; set-up: method as in ChEMBL-NTD; settings: ref ChEMBL-NTD, cited from earlier work
P. falciparum 3D7 [2] = experiment: DAPI stain fluorescent high content imaging assay, P. falciparum 3D7 (confirmatory screen, Avery); settings: for EC50: 3D7, read-out: EC50_nM; for inhibition of growth at 2 µM: 3D7, read-out: percent_inh @ 2 uM; for inhibition of growth at 5 µM: 3D7, read-out: percent_inh @ 5 uM
[3] = original screening data, source (GSK, GNF, StJude), several values separated by ';' in order of sources
[4] = values follow the order of the source (GNF; GSK; StJude)

| Compound | EC50 (P. falciparum 3D7 [2]; Plasmodium falciparum) | inhibition of growth at 5 µM (P. falciparum 3D7 [2]; Plasmodium falciparum) | further results |
| --- | --- | --- | --- |
| CCc1ccc(Nc2cc(C)nc3nc(C)nn23)cc1 [MMV007374] | 4 µM | – | EC50 (P. falciparum 3D7 [1]; [3]): 0.574 µM; inhibition of growth at 2 µM (P. falciparum 3D7 [2]; Plasmodium falciparum): 81% |
| CCN(CC)CCCNc1ccnc2cc3ccccc3cc12 [MMV665783] | – | 90% | EC50 (P. falciparum 3D7 [1]; source GNF (GNF-Pf ids)): 0.0338 µM |
| COc1ccc(CNC2CCN(c3ccc(NC(=O)c4cccc(Cl)c4)cc3)CC2)cc1OC [MMV666067] | 0.663 µM | 97% | EC50 (P. falciparum 3D7 [1]; source GSK): 1.02 µM |
| COc1ccc(C)c2sc(N(Cc3cccnc3)C(=O)c3ccc(C#N)cc3)nc12 [MMV001241] | – | 91% | EC50 (P. falciparum 3D7 [1]; source StJude (SJ ids)): 15 µM |
| COc1ccc(-c2nonc2NC(=O)c2cccc(Cl)c2)cc1OC [MMV020660] | – | – | EC50 (P. falciparum 3D7 [1]; [3]): 0.876 µM; % inh. At 2.5 uM (P. falciparum 3D7 [2]; 2.5 uM (Comment column; solubility issue at 5 uM)): 97% |
| COc1cccc(Nc2nc(N)c3ccccc3n2)c1 [MMV019199] | 4 µM | – | EC50 (P. falciparum 3D7 [1]; [4]): 0.934 µM; inhibition of growth at 2 µM (P. falciparum 3D7 [2]; Plasmodium falciparum): 94% |
| COc1ccc2c(=O)cc(C(Cl)(Cl)Cl)oc2c1 [MMV665820] | 0.52 µM | 94% | EC50 (P. falciparum 3D7 [1]; source StJude (SJ id)): 15 µM |
| COc1ccccc1CNC(=O)CCn1c(=O)[nH]c2ccccc2c1=O [MMV665916] | 0.0726 µM | 64% | EC50 (P. falciparum 3D7 [1]; source GNF (GNF-Pf id)): 0.537 µM |
| CCCN(CCC)CCCNC(=O)c1cc2c(-c3ccc(OC)c(OC)c3)nn(C)c2s1 [MMV000561] | 1.43 µM | 98% | EC50 (P. falciparum 3D7 [1]; [3]): 4.04 µM |
| COc1ccccc1C(=O)ON=C(N)Cc1cccc2ccccc12 [MMV666686] | 0.814 µM | 97% | EC50 (P. falciparum 3D7 [1]; [4]): 0.352 µM |
| CCN(CC)S(=O)(=O)c1ccc(-c2csc(Nc3ccc(C)c(C)c3)n2)cc1 [MMV009108] | 0.641 µM | 97% | EC50 (P. falciparum 3D7 [1]; [3]): 2.1 µM |
| Oc1ccc(Cl)cc1CNc1nc2ccccc2[nH]1 [MMV665850] | – | 95% | EC50 (P. falciparum 3D7 [1]; source GNF): 0.921 µM |
| CC1CCCCN1CCCNC(=O)c1ccc2c(c1)sc1nc(-c3ccc(F)cc3)cn12 (centres unmarked) [MMV000634] | 0.648 µM | 98% | EC50 (P. falciparum 3D7 [1]; source StJude): 0.634 µM |
| Cc1ccc(S(=O)(=O)c2c(COC(=O)c3cccc(C)c3)c(-c3ccccc3)nn2C)cc1 [MMV665936] | – | 95% | EC50 (P. falciparum 3D7 [1]; source GNF (GNF-Pf ids)): 8.4 µM |
| Cc1cc(NC(=O)c2ccc(-c3ccccc3)cc2)no1 [MMV018984] | 0.693 µM | 95% | EC50 (P. falciparum 3D7 [1]; [3]): 1.02 µM |
| O=C(NC1CCN(Cc2ccccc2)CC1)c1cc(-c2ccncc2)nc2ccc(Cl)cc12 [MMV020275] | 1.02 µM | 92% | EC50 (P. falciparum 3D7 [1]; [3]): 0.92 µM |
| CCOC(=O)C1=C(C)N=c2sc(=Cc3cc(Cl)ccc3O)c(=O)n2C1c1ccc(OC)cc1 (centres unmarked) [MMV665971] | 0.489 µM | 97% | EC50 (P. falciparum 3D7 [1]; source GSK (TCMDC ids)): 0.746 µM; EC50 (P. falciparum 3D7 [1]; source StJude (SJ ids)): 15 µM |
| O=C(CCc1ccccc1)c1ccccc1OCC(O)CN1CCCCC1 (centres unmarked) [MMV009015] | 0.676 µM | 97% | EC50 (P. falciparum 3D7 [1]; source GNF): 0.881 µM |
| O=C(Nc1ccc(-c2nc3cc(NC(=O)c4ccc(Cl)cc4)ccc3[nH]2)cc1)c1ccc(Cl)cc1 [MMV006962] | – | – | EC50 (P. falciparum 3D7 [1]; [4]): 0.993 µM; inhibition at 1.25 µM (P. falciparum 3D7 [2]; Plasmodium falciparum, 3D7, read-out: % inh. At 1.25 uM): 48% |
| Cc1cc(N2CCN(C3CCCC3)CC2)n2c(nc3ccccc32)c1C#N [MMV006706] | 0.683 µM | – | EC50 (P. falciparum 3D7 [1]; [3]): 0.743 µM |
| CCCCC(O)(c1ccc(Cl)cc1)C(CN1CCOCC1)c1ccc(Cl)cc1 (centres unmarked) [MMV000619] | 1.38 µM | 98% | EC50 (P. falciparum 3D7 [1]; source StJude (SJ ids)): 4.01 µM |
| Cc1cc(C)c2c(c1)OCN(Cc1ccccc1Cl)C2 [MMV006558] | 0.268 µM | 98% | EC50 (P. falciparum 3D7 [1]; source GNF (GNF-Pf id)): 0.192 µM |
| CCCCCCOC(=O)C1=C(C)NC(=O)NC1c1ccccc1F (centres unmarked) [MMV007686] | 0.106 µM | 95% | EC50 (P. falciparum 3D7 [1]; source GNF (GNF-Pf id)): 6.76 µM |
| COc1ccc(CCN2CCC(CN(C)Cc3cnn(-c4ccccc4)c3)CC2)cc1 [MMV666069] | 1.43 µM | 96% | EC50 (P. falciparum 3D7 [1]; source GSK): 1.16 µM |
| COc1cc(CNCCc2ccc(Cl)cc2)cc(OC)c1O [MMV128432] | 1.79 µM | 97% | EC50 (P. falciparum 3D7 [1]; [4]): 6.89 µM |
| COc1ccc(C(C)=O)cc1N1C(=O)C2C(C1=O)C1(c3ccccc3)C(=O)C2(c2ccccc2)C(c2ccc(C)cc2)=C1c1ccc(C)cc1 (centres unmarked) [MMV007695] | 0.179 µM | 96% | EC50 (P. falciparum 3D7 [1]; source GNF (GNF-Pf id)): 2.46 µM |
| Oc1c(CN2CCN(c3ccccc3F)CC2)cc(Br)c2cccnc12 [MMV000760] | – | 91% | EC50 (P. falciparum 3D7 [1]; [3]): 3.76 µM |
| CCN1CCN(Cc2ccc(NC(=O)c3cc4ccc5cccnc5c4[nH]3)cc2)CC1 [MMV020548] | 0.361 µM | 70% | EC50 (P. falciparum 3D7 [1]; source GSK (TCMDC id)): 0.848 µM |
